Drawing on ChEMBL document CHEMBL3112496, “C1,C2-ether derivatives of the Amaryllidaceae alkaloid lycorine: retention of activity of highly lipophilic analogues against cancer cells” (Bioorg Med Chem Lett, 2014), this text covers GI50 for 21 molecules.

What all share (assay type): functional
In one experiment the test system is B16-F10. Briefly: Growth inhibition of mouse B16F10 cells by MTT assay. In general terms: Formazan colour is commonly taken as a measure of viable cells.
Experiment [1] in a line: Growth inhibition of human Hs683 cells by MTT assay. To be noted: Hs 683.
In a further experiment the test system is SK-MEL-28. The experiment in a line: Growth inhibition of human SK-MEL-28 cells by MTT assay.
For a further experiment, the system named is T98G. Briefly: Growth inhibition of human T98G cells by MTT assay.
In a further experiment the test system is MCF7. Briefly: Growth inhibition of human MCF7 cells by MTT assay.
For another experiment, the system named is A549. The experiment in a line: Growth inhibition of human A549 cells by MTT assay.

The structures appear in SMILES notation.

Take `C=CCO[C@H]1[C@H]2c3cc4c(cc3CN3CCC(=C[C@@H]1O[Si](C(C)C)(C(C)C)C(C)C)[C@H]23)OCO4`: the GI50 in the experiment with B16-F10 amounted to 0.8 µM; in experiment [1] it was 7.6 µM; with SK-MEL-28, 2.4 µM; in the experiment with T98G it was 6.6 µM; in the experiment with MCF7, 5 µM; with A549, 4.5 µM.

Turning to `C1=C2CCN3Cc4cc5c(cc4[C@H]([C@H](OCc4cccnc4)[C@H]1OCc1cccnc1)[C@@H]23)OCO5`, the GI50 with B16-F10 was 85 µM; in experiment [1] it was over 100 µM; in the experiment on SK-MEL-28 it was over 100 µM; in the experiment with T98G, 87 µM; in the experiment with MCF7, 88 µM; in the experiment with A549 it was 72 µM.

As to `C#CCO[C@H]1[C@H]2c3cc4c(cc3CN3CCC(=C[C@@H]1O[Si](C(C)C)(C(C)C)C(C)C)[C@H]23)OCO4`, the GI50 is 6.2 µM in the experiment with B16-F10; 27 µM in experiment [1]; 8.2 µM in the experiment on SK-MEL-28; 4.9 µM with T98G; 8.3 µM in the experiment with MCF7; 3.6 µM in the experiment on A549.

`CO[C@H]1C=C2CCN3Cc4cc5c(cc4[C@H]([C@@H]1O)[C@@H]23)OCO5` [HIPPPAMINE]: the GI50 is 40 µM in the experiment on B16-F10; 36 µM in experiment [1]; 92 µM in the experiment on SK-MEL-28; 84 µM in the experiment on T98G; over 100 µM in the experiment on MCF7; 31 µM in the experiment on A549.

`O[C@H]1[C@H]2c3cc4c(cc3CN3CCC(=C[C@@H]1OCc1cccnc1)[C@H]23)OCO4`: the GI50 with B16-F10 was 66 µM; in experiment [1], over 100 µM; in the experiment with SK-MEL-28, 81 µM; with T98G, 75 µM; with MCF7, 80 µM; in the experiment on A549 it was 40 µM.

Take `C#CCO[C@H]1[C@H]2c3cc4c(cc3CN3CCC(=C[C@@H]1OCC#C)[C@H]23)OCO4`: the GI50 in the experiment with B16-F10 was 28 µM; in experiment [1], 27 µM; in the experiment with SK-MEL-28, 52 µM; with T98G, 68 µM; in the experiment with MCF7 it was 32 µM; in the experiment with A549 it was 23 µM.

For `C#CCCCCO[C@H]1[C@H]2c3cc4c(cc3CN3CCC(=C[C@@H]1OCCCCC#C)[C@H]23)OCO4`, the GI50 in the experiment on B16-F10 came out at 10 µM; in experiment [1], 29 µM; with SK-MEL-28 it was 16 µM; in the experiment with T98G, 6.8 µM; with MCF7 it was 16 µM; in the experiment on A549, 2.8 µM.

Take `C#CCCCCO[C@H]1C=C2CCN3Cc4cc5c(cc4[C@H]([C@@H]1O[Si](C(C)C)(C(C)C)C(C)C)[C@@H]23)OCO5`: the GI50 with B16-F10 came out at 8.7 µM; in experiment [1] it was 23 µM; in the experiment with SK-MEL-28, 25 µM; in the experiment on T98G, 13 µM; in the experiment on MCF7, 19 µM; in the experiment on A549 it was 4.2 µM.

For `COCO[C@H]1C=C2CCN3Cc4cc5c(cc4[C@H]([C@@H]1O)[C@@H]23)OCO5`, the GI50 in the experiment on B16-F10 is 55 µM; in experiment [1], over 100 µM; in the experiment on SK-MEL-28, 85 µM; in the experiment on T98G, 48 µM; with MCF7, 85 µM; in the experiment on A549, 35 µM.

As to `CO[C@H]1[C@H]2c3cc4c(cc3CN3CCC(=C[C@@H]1O[Si](C(C)C)(C(C)C)C(C)C)[C@H]23)OCO4`, the GI50 was determined as 8.9 µM in the experiment on B16-F10; 41 µM in experiment [1]; 28 µM with SK-MEL-28; 19 µM in the experiment with T98G; 28 µM with MCF7; 19 µM in the experiment with A549.

`C#CCCCO[C@H]1C=C2CCN3Cc4cc5c(cc4[C@H]([C@@H]1O)[C@@H]23)OCO5`: the GI50 with B16-F10 was 2.6 µM; in experiment [1] it was 69 µM; in the experiment with SK-MEL-28, 19 µM; in the experiment with T98G it was 4.2 µM; with MCF7 it was 21 µM; with A549, 0.6 µM.

As for `O[C@H]1[C@H]2c3cc4c(cc3CN3CCC(=C[C@@H]1OC[C@@H]1CO1)[C@H]23)OCO4`, the GI50 is 51 µM with B16-F10; over 100 µM in experiment [1]; over 100 µM with SK-MEL-28; 49 µM with T98G; over 100 µM with MCF7; 54 µM in the experiment with A549.

Take `C1=C2CCN3Cc4cc5c(cc4[C@H]([C@H](OC[C@@H]4CO4)[C@H]1OC[C@@H]1CO1)[C@@H]23)OCO5`: the GI50 in the experiment with B16-F10 stood at 70 µM; in experiment [1], 44 µM; in the experiment with SK-MEL-28 it was 70 µM; in the experiment on T98G, 44 µM; in the experiment with MCF7 it was 77 µM; with A549, 39 µM.

Regarding `O[C@H]1[C@H]2c3cc4c(cc3CN3CCC(=C[C@@H]1OCC1CCC1)[C@H]23)OCO4`, the GI50 in the experiment with B16-F10 came to 22 µM; in experiment [1], 50 µM; in the experiment with SK-MEL-28, 41 µM; in the experiment on T98G, 50 µM; in the experiment with MCF7, 37 µM; in the experiment on A549, 27 µM.

`CC(C)[Si](O[C@H]1[C@H]2c3cc4c(cc3CN3CCC(=C[C@@H]1O)[C@H]23)OCO4)(C(C)C)C(C)C`: the GI50 was found to be 9.5 µM in the experiment on B16-F10; 24 µM in experiment [1]; 24 µM with SK-MEL-28; 20 µM with T98G; 23 µM in the experiment on MCF7; 15 µM in the experiment with A549.

Turning to `COCCO[C@H]1C=C2CCN3Cc4cc5c(cc4[C@H]([C@@H]1O)[C@@H]23)OCO5`, the GI50 was 40 µM with B16-F10; over 100 µM in experiment [1]; 91 µM with SK-MEL-28; 47 µM in the experiment on T98G; 74 µM in the experiment with MCF7; 26 µM in the experiment on A549.

Consider `C#CCCCCO[C@H]1[C@H]2c3cc4c(cc3CN3CCC(=C[C@@H]1O[Si](C(C)C)(C(C)C)C(C)C)[C@H]23)OCO4`, for which the GI50 with B16-F10 came out at 6.4 µM; in experiment [1], 35 µM; in the experiment with SK-MEL-28 it was 26 µM; in the experiment on T98G it was 24 µM; with MCF7, 28 µM; with A549 it was 21 µM.

Regarding `C#CCCCO[C@H]1[C@H]2c3cc4c(cc3CN3CCC(=C[C@@H]1O[Si](C(C)C)(C(C)C)C(C)C)[C@H]23)OCO4`, the GI50 with B16-F10 was 7.6 µM; in experiment [1] it was 33 µM; in the experiment with SK-MEL-28 it was 28 µM; with T98G it was 21 µM; with MCF7, 27 µM; with A549, 19 µM.

Consider `CCCO[C@H]1[C@H]2c3cc4c(cc3CN3CCC(=C[C@@H]1OCCC)[C@H]23)OCO4`, for which the GI50 in the experiment on B16-F10 turned out to be 13 µM; in experiment [1] it was 8.1 µM; in the experiment with SK-MEL-28 it was 19 µM; in the experiment with T98G it was 24 µM; with MCF7, 19 µM; with A549 it was 4.9 µM.

Regarding `C1=C2CCN3Cc4cc5c(cc4[C@H]([C@H](OCC4CCC4)[C@H]1OCC1CCC1)[C@@H]23)OCO5`, the GI50 worked out at 8 µM in the experiment with B16-F10; 14 µM in experiment [1]; 22 µM in the experiment on SK-MEL-28; 18 µM in the experiment on T98G; 25 µM in the experiment on MCF7; 5.7 µM in the experiment with A549.

Take `C#CCO[C@H]1C=C2CCN3Cc4cc5c(cc4[C@H]([C@@H]1O)[C@@H]23)OCO5`: the GI50 with B16-F10 was 42 µM; in experiment [1] it was 81 µM; in the experiment with SK-MEL-28, over 100 µM; in the experiment on T98G it was over 100 µM; with MCF7 it was over 100 µM; in the experiment with A549, 48 µM.

As a reminder, the GI50 is the concentration at which growth is held to half of that of the control.
